Assay results taken from publication PMC11277489, “Novel Piperazine Derivatives of Vindoline as Anticancer Agents” (International Journal of Molecular Sciences, 2024).
Like-named read-outs stand apart in the source and are kept apart here.

How the values were obtained:
[1] = system: HL-60(TB); experiment: NCI60 five-dose screen, Leukemia; format: cell-based; conditions: Homo sapiens
[2] = system: K-562; experiment: NCI60 five-dose screen, Leukemia; format: cell-based; conditions: Homo sapiens, K562
[3] = system: SR; experiment: NCI60 five-dose screen, Leukemia; format: cell-based; conditions: Homo sapiens
[4] = system: A549/ATCC; experiment: NCI60 five-dose screen, Non-small Cell Lung Cancer; format: cell-based; conditions: Homo sapiens
[5] = system: NCI-H460; experiment: NCI60 five-dose screen, Non-small Cell Lung Cancer; format: cell-based; conditions: Homo sapiens
[6] = system: HCC-2998; experiment: NCI60 five-dose screen, Colon Cancer; format: cell-based; conditions: Homo sapiens
[7] = system: HCT-15; experiment: NCI60 five-dose screen, Colon Cancer; format: cell-based; conditions: Homo sapiens
[8] = system: SW-620; experiment: NCI60 five-dose screen, Colon Cancer; format: cell-based; conditions: Homo sapiens
[9] = system: SF-268; experiment: NCI60 five-dose screen, CNS Cancer; format: cell-based; conditions: Homo sapiens
[10] = system: U251; experiment: NCI60 five-dose screen, CNS Cancer; format: cell-based; conditions: Homo sapiens, U-251
[11] = system: LOX IMVI; experiment: NCI60 five-dose screen, Melanoma; format: cell-based; conditions: Homo sapiens
[12] = system: M14; experiment: NCI60 five-dose screen, Melanoma; format: cell-based; conditions: Homo sapiens
[13] = system: MDA-MB-435; experiment: NCI60 five-dose screen, Melanoma; format: cell-based; conditions: Homo sapiens
[14] = system: SK-MEL-5; experiment: NCI60 five-dose screen, Melanoma; format: cell-based; conditions: Homo sapiens
[15] = system: IGROV1; experiment: NCI60 five-dose screen, Ovarian Cancer; format: cell-based; conditions: Homo sapiens, IGROV-1
[16] = system: OVCAR-3; experiment: NCI60 five-dose screen, Ovarian Cancer; format: cell-based; conditions: Homo sapiens
[17] = system: OVCAR-4; experiment: NCI60 five-dose screen, Ovarian Cancer; format: cell-based; conditions: Homo sapiens
[18] = system: OVCAR-5; experiment: NCI60 five-dose screen, Ovarian Cancer; format: cell-based; conditions: Homo sapiens
[19] = system: NCI/ADR-RES; experiment: NCI60 five-dose screen, Ovarian Cancer; format: cell-based; conditions: Homo sapiens
[20] = system: ACHN; experiment: NCI60 five-dose screen, Renal Cancer; format: cell-based; conditions: Homo sapiens
[21] = system: TK-10; experiment: NCI60 five-dose screen, Renal Cancer; format: cell-based; conditions: Homo sapiens
[22] = system: PC-3; experiment: NCI60 five-dose screen, Prostate Cancer; format: cell-based; conditions: Homo sapiens
[23] = system: MDA-MB231ATCC; experiment: NCI60 five-dose screen, Breast Cancer; format: cell-based; conditions: Homo sapiens, MDA-MB-231
[24] = system: HS 578T; experiment: NCI60 five-dose screen, Breast Cancer; format: cell-based; conditions: Homo sapiens
[25] = system: BT-549; experiment: NCI60 five-dose screen, Breast Cancer; format: cell-based; conditions: Homo sapiens
[26] = system: T-47D; experiment: NCI60 five-dose screen, Breast Cancer; format: cell-based; conditions: Homo sapiens, T47D
[27] = system: MDA-MB-468; experiment: NCI60 five-dose screen, Breast Cancer; format: cell-based; conditions: Homo sapiens
[28] = system: SR; experiment: NCI60 one-dose screen (10 μM), Leukemia; format: cell-based; conditions: Homo sapiens, read-out: Growth percent rate
[29] = system: NCI-H226; experiment: NCI60 one-dose screen (10 μM), Non-small Cell Lung Cancer; format: cell-based; conditions: Homo sapiens
[30] = system: HCC-2998; experiment: NCI60 one-dose screen (10 μM), Colon Cancer; format: cell-based; conditions: Homo sapiens
[31] = system: HT29; experiment: NCI60 one-dose screen (10 μM), Colon Cancer; format: cell-based; conditions: Homo sapiens
[32] = system: SNB-19; experiment: NCI60 one-dose screen (10 μM), CNS Cancer; format: cell-based; conditions: Homo sapiens
[33] = system: M14; experiment: NCI60 one-dose screen (10 μM), Melanoma; format: cell-based; conditions: Homo sapiens
[34] = system: SK-MEL-5; experiment: NCI60 one-dose screen (10 μM), Melanoma; format: cell-based, human; conditions: Homo sapiens
[35] = system: UACC-62; experiment: NCI60 one-dose screen (10 μM), Melanoma; format: cell-based; conditions: Homo sapiens
[36] = system: OVCAR-5; experiment: NCI60 one-dose screen (10 μM), Ovarian Cancer; format: cell-based; conditions: Homo sapiens
[37] = system: NCI/ADR-RES; experiment: NCI60 one-dose screen (10 μM), Ovarian Cancer; format: cell-based; conditions: Homo sapiens, read-out: Growth percent rate
[38] = system: SK-OV-3; experiment: NCI60 one-dose screen (10 μM), Ovarian Cancer; format: cell-based; conditions: Homo sapiens
[39] = system: UO-31; experiment: NCI60 one-dose screen (10 μM), Renal Cancer; format: cell-based; conditions: Homo sapiens
[40] = system: DU-145; experiment: NCI60 one-dose screen (10 μM), Prostate Cancer; format: cell-based; conditions: Homo sapiens
[41] = system: MDA-MB-231/ATCC; experiment: NCI60 one-dose screen (10 μM), Breast Cancer; format: cell-based, human; conditions: Homo sapiens
[42] = system: BT-549; experiment: NCI60 one-dose screen (10 μM), Breast Cancer; format: cell-based; conditions: Homo sapiens
[43] = system: T-47D; experiment: NCI60 one-dose screen (10 μM), Breast Cancer; format: cell-based; conditions: Homo sapiens, T47D, read-out: Growth percent rate
[44] = system: MDA-MB-468; experiment: NCI60 one-dose screen (10 μM), Breast Cancer; format: cell-based; conditions: Homo sapiens; 10 μM; MDA-MB-468, Breast Cancer; read-out: Growth percent rate
[45] = system: PC-3; experiment: NCI60 one-dose screen (10 μM), Prostate Cancer; format: cell-based; conditions: Homo sapiens, PC-3, read-out: Growth percent rate

CCC12C=CCN3CCC4(c5cc(NC(=O)CN6CCN(C(c7ccc(F)cc7)c7ccc(F)cc7)CC6)c(OC)cc5N(C)C4C(O)(C(=O)OC)C1OC(C)=O)C32 (stereo not shown) [Compound 20]
GI50 ([1]; HL-60(TB), Leukemia, five-dose screen, read-out: GI50): 2.19 µM
GI50 ([2]; K-562, Leukemia, five-dose screen, read-out: GI50): 3.16 µM
GI50 ([3]; Leukemia, five-dose screen, read-out: GI50): 2 µM
GI50 ([4]; A549/ATCC, Non-small Cell Lung Cancer, five-dose screen, read-out: GI50): 4.37 µM
GI50 ([5]; NCI-H460, Non-small Cell Lung Cancer, five-dose screen, read-out: GI50): 3.16 µM
GI50 ([6]; HCC-2998, Colon Cancer, five-dose screen, read-out: GI50): 3.89 µM
GI50 ([7]; HCT-15, Colon Cancer, five-dose screen, read-out: GI50): 3.55 µM
GI50 ([8]; SW-620, Colon Cancer, five-dose screen, read-out: GI50): 3.98 µM
GI50 ([9]; SF-268, CNS Cancer, five-dose screen, read-out: GI50): 5.13 µM
GI50 ([10]; U251, CNS Cancer, five-dose screen, read-out: GI50): 6.03 µM
GI50 ([11]; Melanoma, five-dose screen, read-out: GI50): 3.24 µM
GI50 ([12]; M14, Melanoma, five-dose screen, read-out: GI50): 4.07 µM
GI50 ([13]; MDA-MB-435, Melanoma, five-dose screen, read-out: GI50): 3.89 µM
GI50 ([14]; SK-MEL-5, Melanoma, five-dose screen, read-out: GI50): 2.34 µM
GI50 ([15]; IGROV1, Ovarian Cancer, five-dose screen, read-out: GI50): 7.94 µM
GI50 ([16]; OVCAR-3, Ovarian Cancer, five-dose screen, read-out: GI50): 4.37 µM
GI50 ([17]; OVCAR-4, Ovarian Cancer, five-dose screen, read-out: GI50): 3.31 µM
GI50 ([18]; OVCAR-5, Ovarian Cancer, five-dose screen, read-out: GI50): 3.55 µM
GI50 ([19]; Ovarian Cancer, five-dose screen, read-out: GI50): 4.47 µM
GI50 ([20]; Renal Cancer, five-dose screen, read-out: GI50): 4.9 µM
GI50 ([21]; TK-10, Renal Cancer, five-dose screen, read-out: GI50): 7.59 µM
GI50 ([22]; PC-3, Prostate Cancer, five-dose screen, read-out: GI50): 4.47 µM
GI50 ([23]; MDA-MB231ATCC, Breast Cancer, five-dose screen, read-out: GI50): 9.12 µM
GI50 ([24]; HS 578T, Breast Cancer, five-dose screen, read-out: GI50): 5.89 µM
GI50 ([25]; BT-549, Breast Cancer, five-dose screen, read-out: GI50): 2.57 µM
GI50 ([26]; T-47D, Breast Cancer, five-dose screen, read-out: GI50): 3.55 µM
GI50 ([27]; MDA-MB-468, Breast Cancer, five-dose screen, read-out: GI50): 3.02 µM
activity at 10 µM ([28]; 10 μM, Leukemia): 0.34%
activity at 10 µM ([29]; 10 μM, NCI-H226, Non-small Cell Lung Cancer, read-out: Growth percent rate): 24.1%
activity at 10 µM ([30]; 10 μM, HCC-2998, Colon Cancer, read-out: Growth percent rate): 3.93%
activity at 10 µM ([31]; HT-29, 10 μM, HT29, Colon Cancer, read-out: Growth percent rate): -40.8%
activity at 10 µM ([32]; 10 μM, SNB-19, CNS Cancer, read-out: Growth percent rate): 21.5%
activity at 10 µM ([33]; 10 μM, M14, Melanoma, read-out: Growth percent rate): 49.7%
activity at 10 µM ([34]; 10 μM, SK-MEL-5, Melanoma, read-out: Growth percent rate): -76.2%
activity at 10 µM ([35]; 10 μM, UACC-62, Melanoma, read-out: Growth percent rate): 28.5%
activity at 10 µM ([36]; 10 μM, OVCAR-5, Ovarian Cancer, read-out: Growth percent rate): 66.9%
activity at 10 µM ([37]; 10 μM, Ovarian Cancer): 20.9%
activity at 10 µM ([38]; 10 μM, SK-OV-3, Ovarian Cancer, read-out: Growth percent rate): 45.4%
activity at 10 µM ([39]; 10 μM, UO-31, Renal Cancer, read-out: Growth percent rate): 27.2%
activity at 10 µM ([40]; 10 μM, DU-145, Prostate Cancer, read-out: Growth percent rate): 37.1%
activity at 10 µM ([41]; 10 μM, MDA-MB-231/ATCC, Breast Cancer, read-out: Growth percent rate): -4.47%
activity at 10 µM ([42]; 10 μM, BT-549, Breast Cancer, read-out: Growth percent rate): -37.5%
activity at 10 µM ([43]; 10 μM, T-47D, Breast Cancer): 10.2%
activity at 10 µM [44]: 10.9%

CC[C@]12C=CCN3CC[C@@]4(c5ccc(OC)cc5N(C)[C@H]4[C@@](O)(C(=O)OC)[C@@H]1OC(=O)CCCN1CCN(C(c4ccc(F)cc4)c4ccc(F)cc4)CC1)[C@@H]32 [Compound 25]
GI50 ([1]; HL-60): 1.55 µM
GI50 [2]: 1.91 µM
GI50 [3]: 1.7 µM
GI50 ([4]; A549): 2.63 µM
GI50 ([5]; NCI-H460): 1.78 µM
GI50 ([6]; HCC 2998): 1.66 µM
GI50 ([7]; HCT-15): 1.7 µM
GI50 ([8]; SW-620): 1.62 µM
GI50 ([9]; SF-268): 1.7 µM
GI50 [10]: 1.55 µM
GI50 [11]: 1.74 µM
GI50 ([12]; M14): 1.91 µM
GI50 ([13]; MDA-MB-435): 1.66 µM
GI50 ([14]; SK-MEL-5): 1.55 µM
GI50 [15]: 1.38 µM
GI50 ([16]; OVCAR-3): 1.74 µM
GI50 ([17]; OVCAR-4): 1.95 µM
GI50 ([18]; OVCAR-5): 1.66 µM
GI50 [19]: 1.74 µM
GI50 [20]: 2.09 µM
GI50 ([21]; TK-10): 1.51 µM
GI50 ([22]; PC-3): 1.51 µM
GI50 [23]: 1.58 µM
GI50 ([24]; Hs-578T): 1.78 µM
GI50 ([25]; BT-549): 1.78 µM
GI50 [26]: 1.66 µM
GI50 ([27]; MDA-MB-468): 1.51 µM
activity at 10 µM [28]: -43.6%
activity at 10 µM ([29]; NCI-H226, read-out: Growth percent rate): -74.8%
activity at 10 µM ([30]; HCC 2998, read-out: Growth percent rate): -97.2%
activity at 10 µM ([31]; HT-29, read-out: Growth percent rate): -83.9%
activity at 10 µM ([32]; SNB-19, read-out: Growth percent rate): -93.6%
activity at 10 µM ([33]; M14, read-out: Growth percent rate): -94.8%
activity at 10 µM ([34]; SK-MEL-5, read-out: Growth percent rate): -99.6%
activity at 10 µM ([35]; UACC-62, read-out: Growth percent rate): -92.5%
activity at 10 µM ([36]; OVCAR-5, read-out: Growth percent rate): -92%
activity at 10 µM [37]: -80.8%
activity at 10 µM ([38]; SK-OV-3, read-out: Growth percent rate): -72.5%
activity at 10 µM ([39]; UO-31, read-out: Growth percent rate): -97.8%
activity at 10 µM [45]: -72.3%
activity at 10 µM ([40]; DU-145, read-out: Growth percent rate): -94.4%
activity at 10 µM ([41]; MDA-MB-231, read-out: Growth percent rate): -94%
activity at 10 µM ([42]; BT-549, read-out: Growth percent rate): -92.4%
activity at 10 µM [43]: -64.6%
